Structures can show the parent of a compound that is named as a salt.
These compounds were tested on cGMP-PDE V (assay: c-GMP-PDE V inhibitory activity). Conditions: not given.
Format: biochemical, various animal species and man
Method: The cGMP-PDE and other PDE isozymes were isolated from cardiovascular tissues (heart and aorta) of various animal species and man by anion-exchange and affinity chromatography as described by Silver et al., Sec. Messeng. Phos. 13:13-25, 1991; PDE activity, in the presence and absence of test compounds was determined essentially as described by Thompson et al., Adv. Cyclic Nucleotide Res. 10:69-92. To determine the potency and selectivity of compounds as PDE inhibitors, compounds are screened for their effect on cyclic nucleotide hydrolysis at 10 μM. […] The IC50 values are calculated from concentration-response curves as described by Tallarida and Murray, Manual of Pharmacologic Calculations with Computer Programs, Procedure 8, Graded Dose-response, pp. 14-19, Springer-Verlag, New York, 1981.

IC50 [nM]	SMILES
10.1	CCn1ncc2c(NC[C@@H]3CCC[C@H](O)C3)c3cc([N+](=O)[O-])ccc3nc21 (relative stereo) [Example 36(a), 1-ethyl-6-nitro-N-(3-hydroxycyclohexylmethyl)-1 H-pyrazolo[3,4-b]quinolin-4-amine]
19.3	CCn1ncc2c(NC[C@@H]3CCC[C@@H](O)C3)c3cc([N+](=O)[O-])ccc3nc21 (relative stereo) [Example 36(b), 1-ethyl-6-nitro-N-(3-hydroxycyclohexylmethyl)-1H-pyrazolo[3,4-b]quinolin-4-amine]
7.6	CCn1ncc2c(N[C@@H](C)C3CCCCC3)c3cc([S+](C)[O-])ccc3nc21 (single isomer, unassigned) [48(e), 1-ethyl-6-(methylsulfinyl)-N-[S(+)-1-(cyclohexyl)ethyl]-1H-pyrazolo[3,4-b]quinolin-4-amine]
4.2	CCn1ncc2c(N[C@@H](C)C3CCCCC3)c3cc([S+](C)[O-])ccc3nc21 (single isomer, unassigned) [Example 48(d), 1-ethyl-6-(methylsulfinyl)-N-[S(+)-1-(cyclohexyl)ethyl]-1H-pyrazolo[3,4-b]quinolin-4-amine]
82	CCn1nc(C)c2c(NCC3CCCCC3)c3ccccc3nc21 [2(c), 1-ethyl-3-methyl-N-(cyclohexylmethyl)-1H-pyrazolo[3,4-b]quinolin-4-amine hydrochloride]
610	CCn1ncc2c(NCC3CCCCC3)c3cccc(OC)c3nc21 [9(f), 1-ethyl-8-methoxy-N-(cyclohexylmethyl)-1H-pyrazolo[3,4-b]quinolin-4-amine]
260	c1ccc(Cn2ncc3c(NCC4CCCCC4)c4ccccc4nc32)cc1 [10(d), 1-phenylmethyl-N-(cyclohexylmethyl)-1H-pyrazolo[3,4-b]quinolin-4-amine]
150	c1ccc2c(NCC3CCCCC3)c3cnn(C4CCCC4)c3nc2c1 [11(e), 1-cyclopentyl-N-(cyclohexylmethyl)-1H-pyrazolo[3,4-b]quinolin-4-amine]
150	CCn1ncc2c(NCC3CCCCC3)c3ccc([N+](=O)[O-])cc3nc21 [16(c), 1-ethyl-7-nitro-N-(cyclohexylmethyl)-1H-pyrazolo[3,4-b]quinolin-4-amine]
147	CCn1ncc2c(NCC3CCCCC3)c3ccc(OC)cc3nc21 [18(d), 1-ethyl-7-methoxy-N-(cyclohexylmethyl)-1H-pyrazolo[3,4-b]quinolin-4-amine]
51	CCn1ncc2c(NCC3CCCCC3)c3cc(NC(C)=O)ccc3nc21 [24(c), 1-ethyl-6-acetamido-N-(cyclohexylmethyl)-1H-pyrazolo[3,4-b]quinolin-4-amine]
15	CCn1ncc2c(NCC3CCCCC3)c3cc(C(=O)OC)ccc3nc21 [29(d), 1-ethyl-6-methoxycarbonyl-N-(cyclohexylmethyl)-1H-pyrazolo[3,4-b]quinolin-4-amine]
2.4	CCn1ncc2c(N[C@@H](CO)C3CCCCC3)c3cc([N+](=O)[O-])ccc3nc21 [40(c), 1-ethyl-6-nitro-N-[R-(-)-1-(cyclohexyl)ethanol]-1H-pyrazolo[3,4-b]quinolin-4-amine]
0.96	CCn1ncc2c(N[C@@H](C)C3CCCCC3)c3cc(C#N)ccc3nc21 [41(c), 1-ethyl-6-cyano-N-[S(+)-(1-cyclohexyl)ethyl]-1H-pyrazolo[3,4-b]quinolin-4-amine]
112	CCn1ncc2c(N[C@@H](C)C3CCCCC3)c3cc(OC)c(OC)cc3nc21 [42(c)]

Same assay, conditions: 0.1 μM

SMILES	Percent Inhibition cGMP-PDE V [%]
CCn1ncc2c(NCC3CCC(O)CC3)c3cc(OC)ccc3nc21 (stereo not shown) [19(d), 1-ethyl-6-methoxy-N-(4-hydroxycyclohexylmethyl)-1H-pyrazolo[3,4-b]quinolin-4-amine]	28
CCn1ncc2c(NCC3CCC(=O)CC3)c3cc(OC)ccc3nc21 [28(b), 1-ethyl-6-methoxy-N-[4-oxocyclohexylmethyl]-1H-pyrazolo[3,4-b]quinolin-4-amine]	0

Same assay, conditions: 1 μM

SMILES	Percent Inhibition cGMP-PDE V [%]
CCn1ncc2c(NCC3CCC(=O)CC3)c3cc(OC)ccc3nc21 [28(b), 1-ethyl-6-methoxy-N-[4-oxocyclohexylmethyl]-1H-pyrazolo[3,4-b]quinolin-4-amine]	25

Same assay, conditions: 10 μM

SMILES	Percent Inhibition cGMP-PDE V [%]
CCn1ncc2c(NCC3CCC(=O)CC3)c3cc(OC)ccc3nc21 [28(b), 1-ethyl-6-methoxy-N-[4-oxocyclohexylmethyl]-1H-pyrazolo[3,4-b]quinolin-4-amine]	79
